Reference: patent US9878982B2, “Pyridine derivatives and anti-mycobacterial use thereof” (priority 2014, dated 2018)
≈ marks a conversion by molar mass, not a printed value. Where two headings read alike, the source gives them in different places.

Experiments:
[1] = test system: Mycobacterium smegmatis strain ATCC19420; assay: In vitro efficacy test using Mycobacterium smegmatis strain ATCC19420 (MIC); type: cell-based; settings: CA-MHB + 0.02% Tween 80, 30° C., read after 72 hours; for MIC: Mycolicibacterium smegmatis, ATCC19420, 72 h
Vero Cell = assay: Vero cell cytotoxicity (IC50); type: cell-based; settings: Chlorocebus sabaeus, Vero, African green monkey kidney cells
M. tuberculosis H37R = assay: microbe, parasite or virus in culture; type: cell-based, Mycobacterium tuberculosis; settings: for MIC: Mycobacterium tuberculosis, H37R, read-out: M. tuberculosis H37R LORA (MIC)
[2] = Hela cell cytotoxicity (CC50); settings: human, HeLa cells (human cervical cancer cells), CC50_Hela, half of the toxic concentration
M. tuberculosis H37Rv = assay: In vitro efficacy test using the H37Rv strain, Microplate Alamar Blue Assay (MABA) MIC; type: cell-based, Mycobacterium tuberculosis; settings: for MIC: Mycobacterium tuberculosis, H37RV
[3] = aerobic, 7H9 medium, Alamar Blue, read-out: M. tuberculosis H37Rv MABA (MIC)
[4] = wild-type H37Rv strain, two values per compound, read-out: MABA MIC vs. H37Rv
[5] = wild-type H37Rv strain, two values per compound

Row | SMILES | MIC [1] | IC50 (Vero Cell) | MIC (M. tuberculosis H37R) | CC50 [2] | MIC (M. tuberculosis H37Rv; [3]) | MIC (M. tuberculosis H37Rv; [4]) | MABA MIC vs. H37Rv (M. tuberculosis H37Rv; [5]) | M. smegmatis ATCC19420 MIC [1] | M. tuberculosis H37R LORA (MIC) (M. tuberculosis H37R) | M. tuberculosis H37Rv MABA (MIC) (M. tuberculosis H37Rv; aerobic, 7H9 medium, Alamar Blue)
1 | COc1ncc(-c2ccc(Cl)cc2)cc1C(c1ccccc1)C(O)(CCN(C)C)c1cccc(Br)c1 (single isomer, unassigned) [Compound 388, 2-(3-bromophenyl)-1-(5-(4-chlorophenyl)-2-methoxypyridin-3-yl)-4-(dimethylamino)-1-phenylbutan-2-ol] | 0.0156 µg/mL | > 32 µg/mL | < 0.125 µg/mL | 26.2 µg/mL (≈ 46.2 µM) | 0.062 µg/mL | – | – | – | – | –
2 | COc1ncc(-c2ccc(Cl)cc2)cc1C(c1ccccc1)C(O)(CCN(C)C)c1ccc(Br)cc1 (single isomer, unassigned) [Compound 390, 2-(4-bromophenyl)-1-(5-(4-chlorophenyl)-2-methoxypyridin-3-yl)-4-(dimethylamino)-1-phenylbutan-2-ol] | 0.0625 µg/mL | > 32 µg/mL | < 0.125 µg/mL | 24.1 µg/mL (≈ 42.7 µM) | 0.087 µg/mL | – | – | – | – | –
3 | COc1cccc(C(c2cc(-c3ccc(Cl)cc3)cnc2OC)C(O)(CCN(C)C)c2cc(Cl)cc(Cl)c2)c1OC (single isomer, unassigned) [Compound 395, 1-(5-(4-chlorophenyl)-2-methoxypyridin-3-yl)-2-(3,5-dichlorophenyl)-1-(2,3-dimethoxyphenyl)-4-(dimethylamino)butan-2-ol] | 0.039 µg/mL | > 32 µg/mL | < 0.125 µg/mL | > 64 µg/mL | 0.031 µg/mL | – | – | – | – | –
4 | COc1cccc(C(c2cc(-c3ccc(Cl)cc3)cnc2OC)C(O)(CCN(C)C)c2cccc(Cl)c2)c1OC (single isomer, unassigned) [Compound 399] | ≤ 0.0625 µg/mL | – | – | > 64 µg/mL | – | – | – | – | – | –
5 | COc1nc(OC)c(C(c2ccccc2)C(O)(CCN(C)C)c2cccc3ccccc23)cc1-c1ccc(Cl)cc1 (single isomer, unassigned) [Compound 401, 1-(5-(4-chlorophenyl)-2,6-dimethoxypyridin-3-yl)-4-(dimethylamino)-2-(naphthalen-1-yl)-1-phenylbutan-2-ol] | 0.0312 µg/mL | > 32 µg/mL | 0.19 µg/mL (≈ 0.335 µM) | > 64 µg/mL | 0.05 µg/mL | – | – | – | – | –
6 | COc1ncc(-c2ccccc2)cc1C(c1ccccc1)C(O)(CCN(C)C)c1cccc2ccccc12 (stereo not drawn) [Compound 9, 4-(dimethylamino)-1-(2-methoxy-5-phenylpyridin-3-yl)-2-(naphthalen-1-yl)-1-phenylbutan-2-ol] | 0.0312 µg/mL | > 50 µg/mL | 0.72 µg/mL (≈ 1.43 µM) | 30.4 µg/mL (≈ 60.4 µM) | 1.08 µg/mL | 0.46 µM | 0.36 µM | – | – | –
7 | COc1ncc(-c2cccnc2)cc1C(c1ccccc1)C(O)(CCN(C)C)c1cccc2ccccc12 (stereo not drawn) [Compound 19, 4-(dimethylamino)-1-(6-methoxy-[3,3′-bipyridin]-5-yl)-2-(naphthalen-1-yl)-1-phenylbutan-2-ol] | 0.5 µg/mL | > 50 µg/mL | 3.11 µg/mL (≈ 6.17 µM) | 10.3 µg/mL (≈ 20.4 µM) | 2.85 µg/mL | – | – | – | – | –
8 | COc1ncc(-c2ccccc2)cc1C(c1ccccc1)C(O)(CCN(C)C)c1ccccc1 (stereo not drawn) [Compound 22, 4-(dimethylamino)-1-(2-methoxy-5-phenylpyridin-3-yl)-1,2-diphenylbutan-2-ol] | – | > 50 µg/mL | 1.15 µg/mL (≈ 2.54 µM) | 12 µg/mL (≈ 26.4 µM) | 1.48 µg/mL | – | – | – | – | –
9 | COc1ncc(-c2ccccc2)cc1C(c1ccccc1)C(O)(CCN(C)C)c1cccc(F)c1F (stereo not drawn) [Compound 31, 2-(2,3-difluorophenyl)-4-(dimethylamino)-1-(2-methoxy-5-phenylpyridin-3-yl)-1-phenylbutan-2-ol] | 0.25 µg/mL | > 50 µg/mL | 0.46 µg/mL (≈ 0.942 µM) | 28.1 µg/mL (≈ 57.5 µM) | 0.58 µg/mL | – | – | – | – | –
10 | COc1ncc(-c2ccccc2)cc1C(c1ccccc1)C(O)(CCN(C)C)c1cc(F)cc(F)c1 (stereo not drawn) [Compound 35, 2-(3,5-difluorophenyl)-4-(dimethylamino)-1-(2-methoxy-5-phenylpyridin-3-yl)-1-phenylbutan-2-ol] | ≤ 0.0625 µg/mL | > 50 µg/mL | 0.37 µg/mL (≈ 0.757 µM) | 28.9 µg/mL (≈ 59 µM) | 0.73 µg/mL | – | – | – | – | –
11 | COc1ncc(-c2ccccc2)cc1C(c1ccccc1)C(O)(CCN(C)C)c1cc(F)ccc1F (stereo not drawn) [Compound 39, 2-(2,5-difluorophenyl)-4-(dimethylamino)-1-(2-methoxy-5-phenylpyridin-3-yl)-1-phenylbutan-2-ol] | 0.125 µg/mL | > 50 µg/mL | 0.71 µg/mL (≈ 1.45 µM) | – | 0.68 µg/mL | – | – | – | – | –
12 | COc1ncc(-c2ccccc2)cc1C(c1cccc(Cl)c1)C(O)(CCN(C)C)c1ccccc1 (stereo not drawn) [Compound 43, 1-(3-chlorophenyl)-4-(dimethylamino)-1-(2-methoxy-5-phenylpyridin-3-yl)-2-phenylbutan-2-ol] | 0.125 µg/mL | > 50 µg/mL | 1.42 µg/mL (≈ 2.92 µM) | – | 1.18 µg/mL | – | – | – | – | –
13 | COc1ncc(-c2ccccc2)cc1C(c1ccc(Cl)cc1)C(O)(CCN(C)C)c1ccccc1 (stereo not drawn) [Compound 47, 1-(4-chlorophenyl)-4-(dimethylamino)-1-(2-methoxy-5-phenylpyridin-3-yl)-2-phenylbutan-2-ol] | 0.125 µg/mL | > 50 µg/mL | 0.75 µg/mL (≈ 1.54 µM) | – | 1.25 µg/mL | – | – | – | – | –
14 | COc1ncc(-c2ccccc2)cc1C(c1ccccc1F)C(O)(CCN(C)C)c1ccccc1 (stereo not drawn) [Compound 51, 4-(dimethylamino)-1-(2-fluorophenyl)-1-(2-methoxy-5-phenylpyridin-3-yl)-2-phenylbutan-2-ol] | ≤ 0.0625 µg/mL | > 50 µg/mL | 1.77 µg/mL (≈ 3.76 µM) | – | 1.2 µg/mL | – | – | – | – | –
15 | COc1ncc(-c2ccccc2)cc1C(c1cccc(F)c1)C(O)(CCN(C)C)c1ccccc1 (stereo not drawn) [Compound 55, 4-(dimethylamino)-1-(3-fluorophenyl)-1-(2-methoxy-5-phenylpyridin-3-yl)-2-phenylbutan-2-ol] | 0.125 µg/mL | > 50 µg/mL | 2.06 µg/mL (≈ 4.38 µM) | – | 1.15 µg/mL | – | – | – | – | –
16 | COc1ncc(C2CCCC2)cc1C(c1ccccc1)C(O)(CCN(C)C)c1cccc2ccccc12 (stereo not drawn) [Compound 63] | – | > 50 µg/mL | – | 52.9 µg/mL (≈ 107 µM) | – | – | – | <0.0625 µg/mL | 1.41 µg/mL | 0.75 µg/mL
17 | COc1ncc(-c2ccccc2)cc1C(c1ccc(F)cc1)C(O)(CCN(C)C)c1ccccc1 (stereo not drawn) [Compound 70, 4-(dimethylamino)-1-(4-fluorophenyl)-1-(2-methoxy-5-phenylpyridin-3-yl)-2-phenylbutan-2-ol] | 0.125 µg/mL | > 50 µg/mL | 1.33 µg/mL (≈ 2.83 µM) | 13.7 µg/mL (≈ 29.1 µM) | 1.49 µg/mL | – | – | – | – | –
18 | COc1cccc(C(c2cc(-c3ccccc3)cnc2OC)C(O)(CCN(C)C)c2ccccc2)c1OC (stereo not drawn) [Compound 71, 1-(2,3-dimethoxyphenyl)-4-(dimethylamino)-1-(2-methoxy-5-phenylpyridin-3-yl)-2-phenylbutan-2-ol] | ≤ 0.0625 µg/mL | > 50 µg/mL | 1.47 µg/mL (≈ 2.87 µM) | – | 1.4 µg/mL | – | – | – | – | –
19 | COc1ncc(C2CCOCC2)cc1C(c1ccccc1)C(O)(CCN(C)C)c1cccc2ccccc12 (stereo not drawn) [Compound 75, 4-(dimethylamino)-1-(2-methoxy-5-(tetrahydro-2H-pyran-4-yl)pyridin-3-yl)-2-(naphthalen-1-yl)-1-phenylbutan-2-ol] | 0.125 µg/mL | > 50 µg/mL | 2.73 µg/mL (≈ 5.35 µM) | 22.5 µg/mL (≈ 44 µM) | 1.32 µg/mL | – | – | – | – | –
20 | COc1ncc(-c2ccccc2F)cc1C(c1ccccc1)C(O)(CCN(C)C)c1cccc2ccccc12 (stereo not drawn) [Compound 83, 4-(dimethylamino)-1-(5-(2-fluorophenyl)-2-methoxypyridin-3-yl)-2-(naphthalen-1-yl)-1-phenylbutan-2-ol] | 0.125 µg/mL | > 50 µg/mL | 0.57 µg/mL (≈ 1.09 µM) | – | 1.41 µg/mL | – | – | – | – | –
21 | COc1ncc(-c2cccc(F)c2)cc1C(c1ccccc1)C(O)(CCN(C)C)c1cccc2ccccc12 (stereo not drawn) [Compound 87, 4-(dimethylamino)-1-(5-(3-fluorophenyl)-2-methoxypyridin-3-yl)-2-(naphthalen-1-yl)-1-phenylbutan-2-ol] | ≤ 0.0625 µg/mL | > 50 µg/mL | 1.18 µg/mL (≈ 2.27 µM) | 62.8 µg/mL (≈ 121 µM) | 0.48 µg/mL | – | – | – | – | –
22 | COc1ncc(-c2cccc(Cl)c2)cc1C(c1ccccc1)C(O)(CCN(C)C)c1cccc2ccccc12 (stereo not drawn) [Compound 111] | 0.5 µg/mL | > 50 µg/mL | 1.36 µg/mL (≈ 2.53 µM) | – | 2.73 µg/mL | – | – | – | – | –
23 | COc1ncc(-c2ccc(Br)cc2)cc1C(c1ccccc1)C(O)(CCN(C)C)c1cc(F)ccc1F (stereo not drawn) [Compound 308, 1-(5-(4-bromophenyl)-2-methoxypyridin-3-yl)-2-(2,5-difluorophenyl)-4-(dimethylamino)-1-phenylbutan-2-ol] | – | > 32 µg/mL | 0.19 µg/mL (≈ 0.335 µM) | > 64 µg/mL | 0.09 µg/mL | – | – | – | – | –
24 | COc1ncc(-c2ccc(Cl)cc2)cc1C(c1ccc(Cl)cc1)C(O)(CCN(C)C)c1cccc2ccccc12 (stereo not drawn) [Compound 329] | – | > 32 µg/mL | 2.02 µg/mL (≈ 3.53 µM) | > 64 µg/mL | 0.08 µg/mL | – | – | – | – | –
25 | COc1cc(-c2cnc(OC)c(C(c3ccccc3)C(O)(CCN(C)C)c3cccc4ccccc34)c2)ccc1Cl (stereo not drawn) [Compound 379] | 0.125 µg/mL | – | – | 61.8 µg/mL (≈ 109 µM) | – | – | – | – | – | –
26 | NNC(=O)c1ccncc1 [isoniazide, isoniazid, reference compound] | – | – | – | – | – | 0.37 µM | 0.53 µM | – | – | –
27 | CO[C@H]1/C=C/O[C@@]2(C)Oc3c(C)c(O)c4c(O)c(c(/C=N/N5CCN(C)CC5)c(O)c4c3C2=O)NC(=O)/C(C)=C\C=C\[C@H](C)[C@H](O)[C@@H](C)[C@@H](O)[C@@H](C)[C@H](OC(C)=O)[C@@H]1C [rifampin, reference compound] | – | – | – | – | – | 0.12 µM | 0.24 µM | – | – | –
